Consider 15 compounds from US20250188030A1, “Biphenyl and Phenylpyridine Compounds” (Pfizer Inc., priority 2023, published 2025).

Entries after “also recorded” stand apart in the source; their conditions may differ. Where two headings read alike, the source gives them in different places.

In one series the test system is MM.1S cells. Kind of series: MM1.S 10 Day Proliferation Assay (CellTiter-Glo). The series is classed as cell-based, Human. The following applies: Homo sapiens, MM1.S, 240 h. Summed up: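 MM.1S cells, 500/well in ultra-low-attachment plates, were pre-incubated 16 h, then exposed to a 10-point 1:3 dilution series (top 10 μM final, 0.1% DMSO) for 10 days at 37 °C, with compound-containing medium refreshed at day 5. Viability was read by CellTiter-Glo luminescence; IC50 came from four-parameter fit.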

For another series, the system named is H3K9AC (HT1080 cells). Nature of the series: H3K9AC Sandwich ELISA Assay in HT1080 cells (KAT2A primary cell-based screening assay). On the set-up: species or system Human. Summed up: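 Acetylated H3K9 quantified by luminescent sandwich ELISA (total H3 capture, H3K9ac detection) on HCl lysates of HT1080 cells. Cells had 24 h compound exposure at 37 °C, top concentration 10 µM, 10-point 3-fold series, 0.1% DMSO; IC50 from four-parameter fitting.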
A general note: In an ELISA, binding on a coated surface is turned into a signal by an enzyme label.

The next series has as its target KAT2A (Homo sapiens (Human), UniProt Q92830). Kind of series: KAT2A acetyltransferase biochemical assay (RapidFire mass spectrometry, AcCoA to CoA).
For another series, the target named is KAT2B (Homo sapiens (Human), UniProt Q92831). Kind of series: KAT2B acetyltransferase biochemical assay (RapidFire mass spectrometry, AcCoA to CoA).
Sequence of KAT2B (Q92831 2-832): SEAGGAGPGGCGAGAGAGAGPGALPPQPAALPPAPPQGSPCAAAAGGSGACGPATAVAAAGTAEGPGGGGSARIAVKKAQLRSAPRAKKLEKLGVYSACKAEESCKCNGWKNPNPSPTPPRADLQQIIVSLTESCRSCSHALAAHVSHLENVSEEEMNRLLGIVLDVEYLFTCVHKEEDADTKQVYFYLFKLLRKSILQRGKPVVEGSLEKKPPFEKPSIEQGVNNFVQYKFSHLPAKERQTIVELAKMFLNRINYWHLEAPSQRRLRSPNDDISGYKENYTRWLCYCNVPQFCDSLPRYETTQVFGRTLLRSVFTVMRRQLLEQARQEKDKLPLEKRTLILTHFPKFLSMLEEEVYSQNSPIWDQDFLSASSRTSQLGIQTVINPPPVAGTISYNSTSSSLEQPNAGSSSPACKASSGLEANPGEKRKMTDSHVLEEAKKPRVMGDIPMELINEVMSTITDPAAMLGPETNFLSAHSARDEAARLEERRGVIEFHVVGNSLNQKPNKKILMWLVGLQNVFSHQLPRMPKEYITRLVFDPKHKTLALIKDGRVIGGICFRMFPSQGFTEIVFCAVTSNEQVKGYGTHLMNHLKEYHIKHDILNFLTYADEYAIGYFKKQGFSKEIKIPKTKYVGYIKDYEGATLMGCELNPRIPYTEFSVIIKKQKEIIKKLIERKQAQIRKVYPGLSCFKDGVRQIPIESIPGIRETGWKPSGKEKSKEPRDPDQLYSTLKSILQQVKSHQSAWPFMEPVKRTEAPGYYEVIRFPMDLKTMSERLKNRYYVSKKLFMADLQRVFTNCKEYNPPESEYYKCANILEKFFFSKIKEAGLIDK
A short description of series [1]: Metabolite profile in hepatocytes, recombinant human UGT enzymes, and dog plasma and urine. The format is in vitro ADME. The following applies: hepatocytes (mouse, dog, human), plasma and urine from dogs. An excerpt:
The metabolite profile of 2-(2′-cyclobutyl-3′-fluoro-6-{[(1R,3R)-3-{[(7S)-7-fluoro-5-azaspiro[3.4]octane-7-carbonyl]amino}cyclopentyl]oxy}[1, 1′-biphenyl]-3-yl)-2-methylpropanoic acid (Example A1) assessed in hepatocytes (mouse, dog, human), recombinant human UGT enzymes, and plasma and urine from dogs.
General methods/reviews of obtaining metabolite profile and identifying metabolites of a compound are described in: DAVLIE, 0., et al., “Assessment of Three Human in Vitro Systems in the Generation of Major Human Excretory and Circulating Metabolites,” Chemical Research in Toxicology, 2009, 22(2):357-368; KING, R., “Chapter Three—Biotransformations in Drug Metabolism.” Drug Metabolism Handbook: Concepts and Applications in Cancer Research, edited by Ala F. Nassar et al., Wiley, 2022, 17-38; WU, Y., et al., “Metabolite Identification in Preclinical and Clinical Phase of Drug Development,” Current Drug Metabolism, 2021, 22(11):838-857; GODZIEN, J., et al., “Chapter Fifteen—Metabolite Annotation and Identification.” Comprehensive Analytical Chemistry, Elsevier, 2018, 415-445.

The mark [2] stands for this setting: Homo sapiens, HT-1080, H3K9AC sandwich ELISA.
[3] abbreviates: read-out: KAT2A Ki at 1 μM AcCoA, 5 μM H3 1-21 peptide, 0.5 nM KAT2A, 90-minute reaction.
[4] abbreviates: read-out: KAT2B Ki at 1 μM AcCoA, 1 μM AcCoA, 5 μM H3 1-21 peptide, 0.5 nM KAT2B, 90-minute reaction.
Where [5] appears, read: KAT2A Ki at 1 μM AcCoA, 5 μM H3 1-21 peptide, 0.5 nM KAT2A, 90-minute reaction.

Sequence of KAT2A (Q92830 whole entry): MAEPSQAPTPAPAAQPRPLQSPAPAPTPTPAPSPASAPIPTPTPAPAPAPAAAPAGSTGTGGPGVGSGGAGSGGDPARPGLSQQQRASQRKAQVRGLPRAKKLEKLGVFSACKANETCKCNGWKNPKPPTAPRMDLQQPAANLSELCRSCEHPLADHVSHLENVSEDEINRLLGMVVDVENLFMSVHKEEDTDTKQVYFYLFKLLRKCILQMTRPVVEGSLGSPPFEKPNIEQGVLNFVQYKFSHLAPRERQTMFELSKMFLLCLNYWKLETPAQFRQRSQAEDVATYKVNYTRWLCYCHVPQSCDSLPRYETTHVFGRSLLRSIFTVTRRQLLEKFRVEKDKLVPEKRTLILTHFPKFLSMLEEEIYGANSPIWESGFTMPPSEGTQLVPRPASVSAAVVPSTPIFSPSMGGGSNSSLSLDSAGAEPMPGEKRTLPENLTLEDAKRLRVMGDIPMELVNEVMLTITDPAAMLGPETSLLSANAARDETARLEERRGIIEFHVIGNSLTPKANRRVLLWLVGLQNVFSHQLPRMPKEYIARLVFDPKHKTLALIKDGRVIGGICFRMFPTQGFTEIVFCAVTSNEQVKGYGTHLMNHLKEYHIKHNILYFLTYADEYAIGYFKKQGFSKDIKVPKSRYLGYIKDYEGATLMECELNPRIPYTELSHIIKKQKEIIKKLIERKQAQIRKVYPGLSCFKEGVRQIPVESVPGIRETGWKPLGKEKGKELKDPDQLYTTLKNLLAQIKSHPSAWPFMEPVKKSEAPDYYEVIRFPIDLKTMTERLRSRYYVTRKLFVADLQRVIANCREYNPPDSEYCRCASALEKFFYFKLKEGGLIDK

Regarding `CCc1c(F)cccc1-c1cc(C(C)(C)C(=O)NS(C)(=O)=O)ccc1O[C@@H]1CC[C@@H](NC(=O)[C@@]2(F)CNC3(CCCC3)C2)C1` (single isomer, unassigned) [Example C27], the 50% inhibitory concentration (IC50) in the series with MM.1S cells was found to be 12.8 nM; with H3K9AC (HT1080 cells) (setting [2]) it was 2.62 nM. Besides, the Ki on KAT2A (setting [3]) is 0.16 nM; on KAT2B (setting [4]) it was 0.53 nM.

Consider `CCc1c(F)cccc1-c1cc(C(C)(C)C(=O)NS(=O)(=O)C(C)C)ccc1O[C@@H]1CC[C@@H](NC(=O)[C@@]2(F)CNC3(CCCC3)C2)C1` (single isomer, unassigned) [Example C29], for which the IC50 turned out to be 7.11 nM in the series with MM.1S cells and 1.86 nM with H3K9AC (HT1080 cells) (setting [2]). For the same compound, the Ki on KAT2A (setting [3]) stood at 0.14 nM; at KAT2B (setting [4]) it was 0.47 nM.

Regarding `CC(C)S(=O)(=O)NC(=O)Cc1ccc(O[C@@H]2CC[C@@H](NC(=O)[C@]3(F)CNC4(CCC4)C3)C2)c(-c2cccc(F)c2C2CCC2)c1` (single isomer, unassigned) [Example C40], the IC50 in the series with MM.1S cells worked out at 3.5 nM; with H3K9AC (HT1080 cells) (H3K9AC sandwich ELISA), 1.5 nM. Further, the inhibition constant Ki is 0.02 nM at KAT2A (setting [5]) and 0.07 nM at KAT2B.

For `Cn1cc(-c2ccc(O[C@@H]3CC[C@@H](NC(=O)[C@]4(F)CNC5(CCC5)C4)C3)c(-c3cccc(F)c3C3CCC3)c2)c(C(C)(C)C(=O)O)n1` (single isomer, unassigned) [Example J7], the IC50 is 20.6 nM in the series with MM.1S cells and 3.88 nM in the series on H3K9AC (HT1080 cells) (H3K9AC sandwich ELISA). In addition, the inhibitory constant (Ki) at KAT2A (setting [3]) turned out to be 0.26 nM; on KAT2B (setting [4]), 0.46 nM.

Take `Cn1cc(-c2ccc(O[C@@H]3CC[C@@H](NC(=O)[C@]4(F)CNC5(CCC5)C4)C3)c(-c3cccc(F)c3C3CCC3)c2)c(C(=O)O)n1` (single isomer, unassigned) [Example J10]: the IC50 in the series on MM.1S cells was 52 nM; in the series on H3K9AC (HT1080 cells) (H3K9AC sandwich ELISA), 19.5 nM. The results for the inhibition constant (Ki) on KAT2A (setting [3]) and on KAT2B (setting [4]) were 0.27 nM and 0.49 nM, respectively.

As for `CN1CC(C)(C)C[C@H]1C(=O)N[C@H]1C[C@H](Oc2ccc(C(=O)O)cc2-c2cccc(F)c2C2CCC2)C[C@H]1O` (single isomer, unassigned) [Example K3, 2′-cyclobutyl-3′-fluoro-6-({(1ξ,3ξ,4ξ)-3-hydroxy-4-[(1,4,4-trimethyl-L-prolyl)amino]cyclopentyl}oxy)[1,1′-biphenyl]-3-carboxylic acid], the half-inhibitory concentration (IC50) is 15.9 nM in the series with MM.1S cells and 4.29 nM in the series with H3K9AC (HT1080 cells) (setting [2]). Moreover, the Ki on KAT2A (setting [3]) is 0.19 nM; on KAT2B (setting [4]) it was 0.56 nM.

In the case of `CC(C)(C(=O)O)c1ccc(O[C@@H]2CC[C@@H](NC(=O)[C@@]3(F)CNC4(CCC4)C3)C2)c(-c2cccc(F)c2C2CCC2)c1` [Example A1, 2-(2′-cyclobutyl-3′-fluoro-6-{[(1R,3R)-3-{[(7S)-7-fluoro-5-azaspiro[3.4]octane-7-carbonyl]amino}cyclopentyl]oxy}[1,1′-biphenyl]-3-yl)-2-methylpropanoic acid], the figures for the 50% inhibitory concentration (IC50) in the series with MM.1S cells and in the series on H3K9AC (HT1080 cells) (setting [2]) were 45.3 nM and 8.16 nM, respectively. For the same compound, the inhibition constant Ki on KAT2A (setting [3]) came to 0.47 nM; at KAT2B (setting [4]), 2.65 nM. Also, the additional metabolites observed entry in series [1] was “CYP-mediated oxidation on the cyclobutane ring, the gem-dimethyl group and/or one or both of the biaryl rings; also recorded: direct glucose conjugate from UGT enzymes or chemical reaction”. In addition, the “most significant metabolite observed” value in series [1] is given as “glucuronidation of the carboxylic acid group (Acyl glucuronide)”.

`CC(C)(C(=O)NS(=O)(=O)N1CCC1)c1ccc(O[C@@H]2CC[C@@H](NC(=O)[C@@]3(F)CNC4(CCC4)C3)C2)c(-c2cccc(F)c2C2CCC2)c1` [Example C3, (7S)-N-{(1R,3R)-3-[(5-{1-[(azetidin-1-ylsulfonyl)amino]-2-methyl-1-oxopropan-2-yl}-2′-cyclobutyl-3′-fluorobiphenyl-2-yl)oxy]cyclopentyl}-7-fluoro-5-azaspiro[3.4]octane-7-carboxamide]: the half-maximal inhibitory concentration (IC50) amounted to 6.22 nM with MM.1S cells and 3.84 nM in the series on H3K9AC (HT1080 cells) (setting [2]). Further, the inhibition constant Ki was found to be 0.05 nM on KAT2A (setting [3]) and 0.06 nM on KAT2B (setting [4]).

Consider `CCc1c(F)cccc1-c1cc(C(C)(C)C(=O)NS(=O)(=O)C(C)C)ccc1O[C@@H]1CC[C@@H](NC(=O)[C@@]2(F)CNC3(CCC3)C2)C1` [Example C18, (7S)-N-[(1R,3R)-3-({2′-ethyl-3′-fluoro-5-[2-methyl-1-oxo-1-(propane-2-sulfonamido)propan-2-yl][1,1′-biphenyl]-2-yl}oxy)cyclopentyl]-7-fluoro-5-azaspiro[3.4]octane-7-carboxamide], for which the figures for the IC50 in the series with MM.1S cells and with H3K9AC (HT1080 cells) (setting [2]) were 30.6 nM and 2.34 nM, respectively. Besides, the results for the inhibitory constant (Ki) at KAT2A (setting [3]) and on KAT2B (setting [4]) were 0.1 nM and 0.31 nM, respectively.

For the compound `CN1CC(C)(C)C[C@H]1C(=O)N[C@@H]1CC[C@@H](Oc2ccc(CC(=O)O)cc2-c2cccc(F)c2C2CCC2)C1` [Example D10, [2′-cyclobutyl-3′-fluoro-6-({(1R,3R)-3-[(1,4,4-trimethyl-L-prolyl)amino]cyclopentyl}oxy)[1,1′-biphenyl]-3-yl]acetic acid], the results for the IC50 with MM.1S cells and in the series with H3K9AC (HT1080 cells) (setting [2]) were 193 nM and 39.2 nM, respectively. In addition, the Ki on KAT2A (setting [3]) amounted to 9.48 nM; at KAT2B (setting [4]), 22.2 nM.

Take `CN1CC(C)(C)C[C@H]1C(=O)N[C@@H]1CC[C@@H](Oc2ccc(C(C)(C)C(=O)NS(C)(=O)=O)cc2-c2cccc(F)c2C2CCC2)C1` [Example E1, N-{(1R,3R)-3-[(2′-cyclobutyl-3′-fluoro-5-{1-[(methanesulfonyl)amino]-2-methyl-1-oxopropan-2-yl}[1, 1′-biphenyl]-2-yl)oxy]cyclopentyl}-1,4,4-trimethyl-L-prolinamide]: the results for the IC50 with MM.1S cells and with H3K9AC (HT1080 cells) (setting [2]) were 31.5 nM and 5.06 nM, respectively. For the same compound, the Ki came to 0.15 nM at KAT2A (setting [3]) and 0.38 nM on KAT2B (setting [4]).

As to `CN1CC(C)(C)C[C@H]1C(=O)N[C@@H]1CC[C@@H](Oc2ccc(CC(=O)NS(=O)(=O)N(C)C)cc2-c2cccc(F)c2C2CCC2)C1` [Example E3, N-{(1R,3R)-3-[(2′-cyclobutyl-5-{2-[(dimethylsulfamoyl)amino]-2-oxoethyl}-3′-fluoro[1,1′-biphenyl]-2-yl)oxy]cyclopentyl}-1,4,4-trimethyl-L-prolinamide], the IC50 with MM.1S cells turned out to be 3.82 nM; with H3K9AC (HT1080 cells) (setting [2]), 0.84 nM. For the same compound, the values for the Ki at KAT2A (setting [3]) and on KAT2B (setting [4]) were 0.03 nM and 0.02 nM, respectively.

In the case of `CN1CC(C)(C)C[C@H]1C(=O)N[C@@H]1CC[C@@H](Oc2ccc(C(C)(C)C(=O)NS(=O)(=O)N(C)C)cc2-c2cccc(F)c2C2CCC2)C1` [Example E4, N-{(1R,3R)-3-[(2′-cyclobutyl-5-{1-[(dimethylsulfamoyl)amino]-2-methyl-1-oxopropan-2-yl}-3′-fluoro[1,1′-biphenyl]-2-yl)oxy]cyclopentyl}-1,4,4-trimethyl-L-prolinamide], the IC50 in the series with MM.1S cells was 15.9 nM; in the series on H3K9AC (HT1080 cells) (setting [2]) it was 8.38 nM. The Ki was 0.08 nM on KAT2A (setting [3]) and 0.21 nM on KAT2B (setting [4]).

Take `CN1CC(C)(C)C[C@H]1C(=O)N[C@@H]1CC[C@@H](Oc2ccc(-c3cn(C)nc3C(=O)O)cc2-c2cccc(F)c2C2CCC2)C1` [Example J1, 4-[2′-cyclobutyl-3′-fIuoro-6-({(1R,3R)-3-[(1,4,4-trimethyl -L-prolyl)amino]cyclopentyl}oxy)[1,1′-biphenyl]-3-yl]-1-methyl-1H-pyrazole-3-carboxylic acid]: the IC50 in the series on MM.1S cells was 8.43 nM; in the series on H3K9AC (HT1080 cells) (setting [2]) it was 14.9 nM. For the same compound, the Ki on KAT2A (setting [5]) amounted to 0.41 nM; on KAT2B, 0.74 nM.

Consider `CN1CC(C)(C)C[C@H]1C(=O)N[C@H]1C[C@H](Oc2ccc(CC(=O)O)cc2-c2cccc(F)c2C2CCC2)C[C@H]1O` [Example K4, [2′-cyclobutyl-3′-fluoro-6-({(1S,3R,4S)-3-hydroxy-4-[(1,4,4-trimethyl-L-prolyl)amino]cyclopentyl}oxy)[1,1′-biphenyl]-3-yl]acetic acid], for which the IC50 in the series with MM.1S cells was determined as 45.6 nM; in the series on H3K9AC (HT1080 cells) (setting [2]), 4.56 nM. Moreover, the figures for the inhibitory constant (Ki) on KAT2A (setting [3]) and at KAT2B (setting [4]) were 0.7 nM and 0.94 nM, respectively.

As a reminder, the IC50 is the point on the concentration scale where inhibition reaches its midpoint. Higher therefore signals weaker potency. A word on the Ki: it is a measure of affinity in units of concentration, obtained from inhibition or displacement.
